# Experimental data as given in PubChem BioAssay AID1259407 (Chemical Carcinogenesis Research Information System (CCRIS), 2018).
# Entries after “also recorded” stand apart in the source; their conditions may differ. Activity calls are given as the source filed them. No rule for the calls is given here.
# Tested on: CCRIS mutagenicity, Ames/micronucleus/aberration tests
# Experiment: CCRIS mutagenicity studies
# [1] = Test System: AMES SALMONELLA TYPHIMURIUM, Strain/Indicator: TA100, Metabolic Activation: NONE, Method: PREINCUBATION
# [2] = Test System: AMES SALMONELLA TYPHIMURIUM, Strain/Indicator: TA100, Metabolic Activation: RAT, LIVER, S-9, AROCLOR 1254, Method: PREINCUBATION
smiles,measurement,setting,value
OCc1c2ccccc2c2ccc3cccc4ccc1c2c43,mutagenic call,"Test System: AMES SALMONELLA TYPHIMURIUM, Strain/Indicator: TA98, Metabolic Activation: RAT, LIVER, CYTOSOL AND PAPS-GENERATING SYSTEM, Method: PREINCUBATION",active; positive
same,mutagenic call,"Test System: AMES SALMONELLA TYPHIMURIUM, Strain/Indicator: TA100, Metabolic Activation: RAT, LIVER, CYTOSOL AND PAPS-GENERATING SYSTEM, Method: PREINCUBATION",active; positive
same,mutagenic call,"Test System: AMES SALMONELLA TYPHIMURIUM, Strain/Indicator: TA100, Metabolic Activation: RAT, LIVER, S-9, AROCLOR 1254, Method: STANDARD PLATE",active; positive
same,mutagenic call,"Test System: AMES SALMONELLA TYPHIMURIUM, Strain/Indicator: TA1538, Metabolic Activation: RAT, LIVER, S-9, AROCLOR 1254, Method: STANDARD PLATE",active; positive
same,mutagenic call,"Test System: CHINESE HAMSTER V-79, Strain/Indicator: V-79 (HGPRT)/6-THIOGUANINE, Metabolic Activation: NONE",active; positive
same,mutagenic call,"Test System: CHINESE HAMSTER V-79, Strain/Indicator: V-79 (NA/K-ATPASE)/OUABAIN, Metabolic Activation: NONE",active; positive
same,mutagenic call,"Test System: CHINESE HAMSTER V-79, Strain/Indicator: V-79/OUABAIN, Metabolic Activation: HAMSTER, EMBRYO, CELL-MEDIATED, Method: STANDARD PLATE",active; positive
NS(=O)(=O)c1cc(C(=O)O)c(NCc2ccco2)cc1Cl,mutagenic call,"End Point: IN VITRO CHROMOSOMAL ABERRATIONS, Test System: CHO CELLS, Metabolic Activation: NONE",active; positive; precipitation occurred at 3750 and 5000 ug/ml; also recorded: active; positive; precipitation occurred at 2513 ug/ml
same,mutagenic call,"End Point: IN VITRO CHROMOSOMAL ABERRATIONS, Test System: CHO CELLS, Metabolic Activation: RAT, LIVER, S-9, AROCLOR 1254",active; positive; precipitation occurred at all doses
same,mutagenic call,"Test System: AMES SALMONELLA TYPHIMURIUM, Strain/Indicator: TA98, Metabolic Activation: HAMSTER, LIVER, S-9, AROCLOR 1254 (10%), Method: PREINCUBATION",inactive; negative
same,mutagenic call,"Test System: AMES SALMONELLA TYPHIMURIUM, Strain/Indicator: TA98, Metabolic Activation: HAMSTER, LIVER, S-9, AROCLOR 1254, Method: PREINCUBATION",inactive; negative
same,mutagenic call,"Test System: AMES SALMONELLA TYPHIMURIUM, Strain/Indicator: TA98, Metabolic Activation: NONE, Method: PREINCUBATION",inactive; negative
same,mutagenic call,"Test System: AMES SALMONELLA TYPHIMURIUM, Strain/Indicator: TA98, Metabolic Activation: RAT, LIVER, S-9, AROCLOR 1254 (10%), Method: PREINCUBATION",inactive; negative
same,mutagenic call,"Test System: AMES SALMONELLA TYPHIMURIUM, Strain/Indicator: TA98, Metabolic Activation: RAT, LIVER, S-9, AROCLOR 1254, Method: PREINCUBATION",inactive; negative
same,mutagenic call,"Test System: AMES SALMONELLA TYPHIMURIUM, Strain/Indicator: TA100, Metabolic Activation: HAMSTER, LIVER, S-9, AROCLOR 1254 (10%), Method: PREINCUBATION",inactive; negative
same,mutagenic call,"Test System: AMES SALMONELLA TYPHIMURIUM, Strain/Indicator: TA100, Metabolic Activation: HAMSTER, LIVER, S-9, AROCLOR 1254, Method: PREINCUBATION",inactive; negative
same,mutagenic call,[1],inactive; negative
same,mutagenic call,"Test System: AMES SALMONELLA TYPHIMURIUM, Strain/Indicator: TA100, Metabolic Activation: RAT, LIVER, S-9, AROCLOR 1254 (10%), Method: PREINCUBATION",inactive; negative
same,mutagenic call,[2],inactive; negative
same,mutagenic call,"Test System: AMES SALMONELLA TYPHIMURIUM, Strain/Indicator: TA1535, Metabolic Activation: HAMSTER, LIVER, S-9, AROCLOR 1254 (10%), Method: PREINCUBATION",inactive; negative
same,mutagenic call,"Test System: AMES SALMONELLA TYPHIMURIUM, Strain/Indicator: TA1535, Metabolic Activation: HAMSTER, LIVER, S-9, AROCLOR 1254, Method: PREINCUBATION",inactive; negative
same,mutagenic call,"Test System: AMES SALMONELLA TYPHIMURIUM, Strain/Indicator: TA1535, Metabolic Activation: NONE, Method: PREINCUBATION",inactive; negative
same,mutagenic call,"Test System: AMES SALMONELLA TYPHIMURIUM, Strain/Indicator: TA1535, Metabolic Activation: RAT, LIVER, S-9, AROCLOR 1254 (10%), Method: PREINCUBATION",inactive; negative
same,mutagenic call,"Test System: AMES SALMONELLA TYPHIMURIUM, Strain/Indicator: TA1535, Metabolic Activation: RAT, LIVER, S-9, AROCLOR 1254, Method: PREINCUBATION",inactive; negative
same,mutagenic call,"Test System: AMES SALMONELLA TYPHIMURIUM, Strain/Indicator: TA1537, Metabolic Activation: HAMSTER, LIVER, S-9, AROCLOR 1254 (10%), Method: PREINCUBATION",inactive; negative
same,mutagenic call,"Test System: AMES SALMONELLA TYPHIMURIUM, Strain/Indicator: TA1537, Metabolic Activation: HAMSTER, LIVER, S-9, AROCLOR 1254, Method: PREINCUBATION",inactive; negative
same,mutagenic call,"Test System: AMES SALMONELLA TYPHIMURIUM, Strain/Indicator: TA1537, Metabolic Activation: NONE, Method: PREINCUBATION",inactive; negative
same,mutagenic call,"Test System: AMES SALMONELLA TYPHIMURIUM, Strain/Indicator: TA1537, Metabolic Activation: RAT, LIVER, S-9, AROCLOR 1254 (10%), Method: PREINCUBATION",inactive; negative
same,mutagenic call,"Test System: AMES SALMONELLA TYPHIMURIUM, Strain/Indicator: TA1537, Metabolic Activation: RAT, LIVER, S-9, AROCLOR 1254, Method: PREINCUBATION",inactive; negative
same,mutagenic call,"Test System: MOUSE LYMPHOMA, Strain/Indicator: L5178Y (TK+/TK-), Metabolic Activation: NONE, Method: SUSPENSION/PLATE",inactive; negative
same,mutagenic call,"Test System: MOUSE LYMPHOMA, Strain/Indicator: L5178Y (TK+/TK-), Metabolic Activation: RAT, LIVER, S-9, AROCLOR 1254, Method: SUSPENSION/PLATE",active; positive
CN(C)c1ccc(/C=C/C=O)cc1,mutagenic call,[1],inactive; negative
same,mutagenic call,[2],inactive; negative
CN(C)CCNC(=O)c1cccc2c1ncc1ccccc12,mutagenic call,"Test System: AMES SALMONELLA TYPHIMURIUM, Strain/Indicator: TA1537, Metabolic Activation: NONE, Method: STANDARD PLATE",active; positive
